Structures are written as SMILES. Bounds are passed on as bounds.

The target in assay [1] is T1, Histone-lysine N-methyltransferase NSD2 (Homo sapiens, UniProt O96028).
T1 sequence (O96028 whole entry): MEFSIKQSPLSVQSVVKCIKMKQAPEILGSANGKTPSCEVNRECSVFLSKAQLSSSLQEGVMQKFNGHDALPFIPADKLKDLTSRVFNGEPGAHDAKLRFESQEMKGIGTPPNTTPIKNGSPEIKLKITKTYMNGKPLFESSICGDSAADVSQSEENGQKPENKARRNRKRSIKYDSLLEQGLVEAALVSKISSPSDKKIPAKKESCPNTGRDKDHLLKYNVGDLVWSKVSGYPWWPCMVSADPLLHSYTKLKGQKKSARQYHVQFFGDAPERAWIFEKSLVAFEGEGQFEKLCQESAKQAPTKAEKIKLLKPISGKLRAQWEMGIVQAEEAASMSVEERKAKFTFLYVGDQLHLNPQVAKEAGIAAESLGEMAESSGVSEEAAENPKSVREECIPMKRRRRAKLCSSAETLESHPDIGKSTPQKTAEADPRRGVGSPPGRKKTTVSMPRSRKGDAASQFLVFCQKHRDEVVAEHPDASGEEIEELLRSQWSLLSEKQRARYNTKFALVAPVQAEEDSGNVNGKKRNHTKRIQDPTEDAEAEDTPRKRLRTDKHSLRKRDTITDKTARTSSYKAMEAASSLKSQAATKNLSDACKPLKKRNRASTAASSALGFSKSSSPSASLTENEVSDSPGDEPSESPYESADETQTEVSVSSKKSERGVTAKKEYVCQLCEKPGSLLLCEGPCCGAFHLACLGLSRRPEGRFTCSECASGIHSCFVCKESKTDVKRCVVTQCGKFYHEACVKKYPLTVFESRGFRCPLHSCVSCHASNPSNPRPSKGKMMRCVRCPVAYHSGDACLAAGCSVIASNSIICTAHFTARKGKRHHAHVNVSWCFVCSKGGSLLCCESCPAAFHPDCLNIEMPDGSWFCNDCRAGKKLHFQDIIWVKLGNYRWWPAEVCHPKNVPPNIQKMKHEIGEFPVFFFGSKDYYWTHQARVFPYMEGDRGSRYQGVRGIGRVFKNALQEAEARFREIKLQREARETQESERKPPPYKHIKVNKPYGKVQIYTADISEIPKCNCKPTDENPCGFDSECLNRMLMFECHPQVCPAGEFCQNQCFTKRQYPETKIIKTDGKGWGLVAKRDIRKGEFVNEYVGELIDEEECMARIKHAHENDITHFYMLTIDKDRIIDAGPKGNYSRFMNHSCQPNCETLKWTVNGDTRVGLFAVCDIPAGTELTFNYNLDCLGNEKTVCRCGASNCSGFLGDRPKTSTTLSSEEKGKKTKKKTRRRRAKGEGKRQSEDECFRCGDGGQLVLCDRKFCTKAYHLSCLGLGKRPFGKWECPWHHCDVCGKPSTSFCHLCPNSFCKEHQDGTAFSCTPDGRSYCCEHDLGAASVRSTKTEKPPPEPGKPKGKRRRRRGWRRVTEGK
In words: Inhibition of full-length NSD2 (unknown origin) using HeLa oligonucleosome as substrate preincubated for 15 mins followed by substrate addition measured after 45 mins in presence of SAM by MTaseGlo assay.

Assay [2] has as its target Histone-lysine N-methyltransferase, H3 lysine-79 specific (Homo sapiens, UniProt Q8TEK3). In words: Inhibition of full-length DOT1L (unknown origin) using HeLa oligonucleosome as substrate preincubated for 15 mins followed by substrate addition measured after 45 mins in presence of SAM by MTaseGlo assay.
Assay [3] addresses T2, Arsenite methyltransferase (Homo sapiens, UniProt Q9HBK9).
T2 sequence (Q9HBK9 whole entry): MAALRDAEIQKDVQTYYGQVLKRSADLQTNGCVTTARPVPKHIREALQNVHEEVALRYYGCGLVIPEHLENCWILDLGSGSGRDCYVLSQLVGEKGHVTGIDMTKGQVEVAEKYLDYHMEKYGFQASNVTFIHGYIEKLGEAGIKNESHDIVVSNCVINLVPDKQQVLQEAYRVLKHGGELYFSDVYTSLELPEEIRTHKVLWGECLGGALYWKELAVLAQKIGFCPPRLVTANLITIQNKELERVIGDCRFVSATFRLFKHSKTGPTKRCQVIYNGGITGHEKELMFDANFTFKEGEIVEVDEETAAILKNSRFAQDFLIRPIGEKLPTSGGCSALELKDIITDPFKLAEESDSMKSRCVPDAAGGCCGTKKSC
In words: Inhibition of human AS3MT using NaAsO2 as substrate preincubated for 30 minutes followed by substrate addition measured after 90 mins in presence of SAM.

Sequence of Histone-lysine N-methyltransferase, H3 lysine-79 specific (Q8TEK3 whole entry): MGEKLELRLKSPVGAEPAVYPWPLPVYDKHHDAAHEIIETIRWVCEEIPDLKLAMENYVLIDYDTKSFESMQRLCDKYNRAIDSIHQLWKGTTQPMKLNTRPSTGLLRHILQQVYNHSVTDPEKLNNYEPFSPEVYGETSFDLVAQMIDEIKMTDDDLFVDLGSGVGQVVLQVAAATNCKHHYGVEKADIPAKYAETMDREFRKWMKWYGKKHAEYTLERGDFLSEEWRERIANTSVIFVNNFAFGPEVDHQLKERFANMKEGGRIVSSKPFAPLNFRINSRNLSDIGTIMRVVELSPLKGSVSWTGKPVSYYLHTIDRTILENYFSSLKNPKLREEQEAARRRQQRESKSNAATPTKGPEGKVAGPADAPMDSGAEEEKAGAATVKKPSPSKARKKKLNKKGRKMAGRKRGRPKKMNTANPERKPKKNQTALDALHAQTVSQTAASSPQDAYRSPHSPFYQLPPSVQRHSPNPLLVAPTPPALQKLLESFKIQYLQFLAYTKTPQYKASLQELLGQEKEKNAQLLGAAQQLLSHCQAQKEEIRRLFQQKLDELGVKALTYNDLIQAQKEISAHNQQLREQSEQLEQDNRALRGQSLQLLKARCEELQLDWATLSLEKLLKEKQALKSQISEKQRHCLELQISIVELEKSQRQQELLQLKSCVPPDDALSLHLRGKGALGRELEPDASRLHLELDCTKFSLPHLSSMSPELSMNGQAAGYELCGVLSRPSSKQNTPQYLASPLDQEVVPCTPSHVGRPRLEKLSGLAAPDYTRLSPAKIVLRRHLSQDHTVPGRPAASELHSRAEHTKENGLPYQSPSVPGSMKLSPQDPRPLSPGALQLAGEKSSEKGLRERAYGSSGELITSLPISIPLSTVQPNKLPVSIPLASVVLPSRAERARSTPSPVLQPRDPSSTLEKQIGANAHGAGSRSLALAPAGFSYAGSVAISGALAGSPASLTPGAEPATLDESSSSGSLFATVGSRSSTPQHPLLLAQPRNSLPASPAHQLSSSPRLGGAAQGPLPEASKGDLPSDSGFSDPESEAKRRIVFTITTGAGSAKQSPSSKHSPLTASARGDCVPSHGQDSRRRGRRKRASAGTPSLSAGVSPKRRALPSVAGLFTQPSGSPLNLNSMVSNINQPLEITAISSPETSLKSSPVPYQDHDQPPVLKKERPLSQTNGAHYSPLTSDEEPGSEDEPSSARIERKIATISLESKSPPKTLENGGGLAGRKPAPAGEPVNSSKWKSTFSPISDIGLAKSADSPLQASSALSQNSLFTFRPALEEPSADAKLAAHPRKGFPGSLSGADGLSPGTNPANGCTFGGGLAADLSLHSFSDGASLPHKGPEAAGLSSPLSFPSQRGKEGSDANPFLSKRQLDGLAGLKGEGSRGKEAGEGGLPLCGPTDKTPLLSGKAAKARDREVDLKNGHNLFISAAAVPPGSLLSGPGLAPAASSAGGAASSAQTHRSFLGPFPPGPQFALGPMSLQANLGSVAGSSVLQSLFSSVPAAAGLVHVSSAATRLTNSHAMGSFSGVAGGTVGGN

`N#Cc1c(N)[nH]c2ccc(Oc3ccc(NC(=O)[C@H](N)CO)cc3)cc12`: the half-inhibitory concentration (IC50) in assay [1] is 9.1 µM; in assay [2], > 100 µM; in assay [3] it was 5 µM.

As to `CCn1c(N)c(C#N)c2cc(Oc3ccc(NC(=O)CN)cc3)ccc21`, the IC50 in assay [1] was found to be 12 µM; in assay [2], 99 µM; in assay [3], 1.8 µM.

With `Cn1c(N)c(C#N)c2cc(Oc3ccc(NC(=O)CN)cc3)ccc21`, the IC50 in assay [1] was 47 µM; in assay [2], > 100 µM; in assay [3], 3.3 µM.

Turning to `N#Cc1c(N)[nH]c2ccc(Oc3ccc(NC(=O)[C@@H](N)CO)cc3)cc12`, the figures for the IC50 in assay [1], in assay [2] and in assay [3] were 11 µM, > 100 µM and 3 µM, respectively.

As to `CN(C)C(=O)Cn1c(N)c(C#N)c2cc(Oc3ccc(NC(=O)CN)cc3)ccc21`, the IC50 in assay [3] worked out at 8.3 µM.

On to `CCn1cc(C#N)c2cc(Oc3ccc(NC(=O)CN)cc3)ccc21`, for which, in assay [3], the IC50 was > 100 µM.

As for `N#Cc1c(N)n(CC(N)=O)c2ccc(Oc3ccc(NC(=O)CN)cc3)cc12`, the IC50 in assay [3] is 20 µM.

As to `N#Cc1c(N)[nH]c2ccc(OCc3ccccc3)cc12`, the IC50 in assay [1] is 49 µM; in assay [2], > 100 µM; in assay [3], 3.6 µM.

On to `Cn1c(N)c(C#N)c2cc(OCc3cccc(N)c3)ccc21`, for which the IC50 is > 100 µM in assay [1], > 100 µM in assay [2] and 1.4 µM in assay [3].

`Cn1c(N)c(C#N)c2cc(OCc3ccccc3)ccc21`: the IC50 in assay [1] is > 100 µM; in assay [2], > 100 µM; in assay [3] it was 13.6 µM.

On to `Cn1c(N)c(C#N)c2cc(OCc3cccc(NC(=O)C(N)CO)c3)ccc21` (centres undefined), for which the IC50 in assay [3] was determined as 2.9 µM.

Take `N#Cc1c(N)n(CC2CC2)c2ccc(Oc3ccc(NC(=O)CN)cc3)cc12`: the IC50 in assay [1] is 5.8 µM; in assay [2] it was 96 µM; in assay [3], 1.5 µM.

With `CC(C)(C)C(=O)Nc1[nH]c2ccc(OCc3ccccc3)cc2c1C#N`, the half-inhibitory concentration (IC50) in assay [3] is > 100 µM.

Source of the values: ChEMBL document CHEMBL4265895, “Novel inhibitors of As(III) S-adenosylmethionine methyltransferase (AS3MT) identified by virtual screening” (Bioorg Med Chem Lett, 2018).
